Test results published in ChEMBL document CHEMBL2406941, “Discovery of 'molecular switches' within a GIRK activator scaffold that afford selective GIRK inhibitors” (Bioorg Med Chem Lett, 2013).
Calls of active or inactive are those of the source. The rule behind the calls is not given here.

Legend:
[1] = biological target: T1, G protein-activated inward rectifier potassium channel 2 (Homo sapiens) (UniProt P48051); experiment: Activation of GIRK2 (unknown origin)
T1 sequence (whole entry): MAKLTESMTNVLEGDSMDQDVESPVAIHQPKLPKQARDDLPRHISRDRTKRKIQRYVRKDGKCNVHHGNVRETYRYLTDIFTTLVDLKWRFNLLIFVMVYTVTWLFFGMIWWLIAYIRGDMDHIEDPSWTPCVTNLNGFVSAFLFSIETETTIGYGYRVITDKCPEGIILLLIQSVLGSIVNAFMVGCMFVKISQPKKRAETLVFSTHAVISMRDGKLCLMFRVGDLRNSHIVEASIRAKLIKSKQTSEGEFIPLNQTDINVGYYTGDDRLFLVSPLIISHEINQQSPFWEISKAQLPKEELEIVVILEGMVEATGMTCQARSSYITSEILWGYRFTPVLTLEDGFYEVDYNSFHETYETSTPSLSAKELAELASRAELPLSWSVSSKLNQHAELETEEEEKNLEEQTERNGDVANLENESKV

[2] = biological target: Kir3.2/Kir3.3 (Homo sapiens) (UniProt P48051+Q92806); experiment: Activation of GIRK2/3 (unknown origin); assay type: protein-complex assay
Kir3.1/Kir3.2 [3] = biological target: T2, Kir3.1/Kir3.2 (Homo sapiens, UniProt P48051+P48549); experiment: Activation of GIRK1/2 (unknown origin); assay type: protein-complex assay
T2 sequence (P48549 whole entry): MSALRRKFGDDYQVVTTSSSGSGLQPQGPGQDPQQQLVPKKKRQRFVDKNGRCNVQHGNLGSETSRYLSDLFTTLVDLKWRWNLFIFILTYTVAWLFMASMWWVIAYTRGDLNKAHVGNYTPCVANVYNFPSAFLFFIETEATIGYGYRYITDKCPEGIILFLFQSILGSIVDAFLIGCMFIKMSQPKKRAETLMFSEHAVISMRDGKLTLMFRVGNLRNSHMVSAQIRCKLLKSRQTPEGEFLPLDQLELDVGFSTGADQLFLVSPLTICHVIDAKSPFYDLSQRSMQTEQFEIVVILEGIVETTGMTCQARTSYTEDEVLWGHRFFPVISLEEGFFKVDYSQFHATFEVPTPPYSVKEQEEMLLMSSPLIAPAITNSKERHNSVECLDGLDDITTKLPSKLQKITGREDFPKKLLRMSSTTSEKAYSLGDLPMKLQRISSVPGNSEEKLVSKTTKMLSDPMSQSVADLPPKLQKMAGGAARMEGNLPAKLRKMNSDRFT
T2 sequence (P48051 whole entry): T1 sequence (whole entry)

[4] = biological target: T3, Kir3.1/Kir3.2 (Homo sapiens) (UniProt P48549+P48051); experiment: Activation of GIRK1/2 (unknown origin) relative to ML297; assay type: protein-complex assay
Kir3.1/Kir3.4 [5] = biological target: T4, Kir3.1/Kir3.4 (Homo sapiens, UniProt P48544+P48549); experiment: Activation of GIRK1/4 (unknown origin); assay type: protein-complex assay
T4 sequence (P48549 whole entry): T2 sequence (P48549 whole entry)
T4 sequence (P48544 whole entry): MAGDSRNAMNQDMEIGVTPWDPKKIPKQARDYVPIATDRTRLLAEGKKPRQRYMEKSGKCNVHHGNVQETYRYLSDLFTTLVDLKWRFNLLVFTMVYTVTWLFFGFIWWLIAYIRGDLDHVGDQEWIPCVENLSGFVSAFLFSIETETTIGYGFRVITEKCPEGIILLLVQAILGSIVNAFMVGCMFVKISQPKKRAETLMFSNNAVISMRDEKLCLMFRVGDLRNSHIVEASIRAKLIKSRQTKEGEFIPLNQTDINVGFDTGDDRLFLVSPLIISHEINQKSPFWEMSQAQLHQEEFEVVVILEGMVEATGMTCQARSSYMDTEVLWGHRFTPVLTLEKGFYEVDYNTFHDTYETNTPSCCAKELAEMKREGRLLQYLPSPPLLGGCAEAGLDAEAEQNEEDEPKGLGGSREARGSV

[6] = biological target: T5, Kir3.1/Kir3.4 (Homo sapiens) (UniProt P48549+P48544); experiment: Activation of GIRK1/4 (unknown origin) relative to ML297; assay type: protein-complex assay
[7] = biological target: T5, Kir3.1/Kir3.4 (Homo sapiens); experiment: Inhibition of GIRK1/4 (unknown origin) relative to SCH3320; assay type: protein-complex assay; set-up: concentration or dose not given beside the values; details: concentration not given here
Kir3.1/Kir3.4 [8] = biological target: T4, Kir3.1/Kir3.4; experiment: Inhibition of GIRK1/4 (unknown origin); assay type: protein-complex assay
[9] = biological target: T3, Kir3.1/Kir3.2 (Homo sapiens); experiment: Inhibition of GIRK1/2 (unknown origin) relative to SCH3320; assay type: protein-complex assay; set-up: concentration or dose not given beside the values; details: concentration not given here
Kir3.1/Kir3.2 [10] = biological target: T2, Kir3.1/Kir3.2; experiment: Inhibition of GIRK1/2 (unknown origin); assay type: protein-complex assay

Structure (SMILES)	Activity [1]	Activity [2]	EC50 (Kir3.1/Kir3.2 [3]) [nM]	Efficacy [4] [%]	EC50 (Kir3.1/Kir3.4 [5]) [nM]	Efficacy [6] [%]	inhibition [7] [%]	IC50 (Kir3.1/Kir3.4 [8]) [nM]	inhibition [9] [%]	IC50 (Kir3.1/Kir3.2 [10]) [nM]
Cc1cc(NC(=O)Nc2ccc(F)c(F)c2)n(-c2ccncc2)n1	inactive	inactive	> 10000	88	> 30000	–	–	–	–	–
O=C(Nc1cccc(F)c1)Nc1cc(C2CC2)nn1Cc1ccccc1	–	–	530	46	780	85	–	–	–	–
O=C(Nc1ccc(F)c(F)c1)Nc1cc(-c2ccccc2)nn1-c1ccccc1	inactive	inactive	> 30000	–	–	–	–	–	–	–
O=C(Nc1ccc(F)c(F)c1)Nc1cc(C2CC2)nn1-c1ccccc1	inactive	inactive	410	32	–	–	–	–	–	–
O=C(Nc1ccc(F)cc1)Nc1cc(CC2CC2)nn1-c1ccccc1	–	–	–	–	–	–	54	270	80	640
O=C(Nc1ccc(F)c(F)c1)Nc1cc(C2CCC2)nn1-c1ccccc1	inactive	inactive	–	–	–	–	–	–	–	–
Cc1cccc(NC(=O)Nc2cc(CC3CC3)nn2-c2ccccc2)c1	–	–	–	–	–	–	47	250	83	520
O=C(Nc1cccc(C(F)(F)F)c1)Nc1cc(C2CCC2)nn1-c1ccccc1	–	–	–	–	–	–	84	690	65	1300
CSc1cccc(NC(=O)Nc2cc(C3CC3)nn2-c2ccccc2)c1	–	–	–	–	–	–	–	> 30000	86	950
O=C(Nc1cccc(Cl)c1)Nc1cc(C2CCC2)nn1-c1ccccc1	–	–	–	–	–	–	89	480	64	1400
Cc1cccc(NC(=O)Nc2cc(C(C)C)nn2-c2ccccc2)c1	–	–	–	–	–	–	67	850	93	2600
CC(C)c1cc(NC(=O)Nc2cccc(C(F)(F)F)c2)n(-c2ccccc2)n1	–	–	–	–	–	–	100	1300	62	2100
O=C(Nc1ccc(F)c(F)c1)Nc1cc(C(F)(F)F)nn1-c1ccccc1	inactive	inactive	–	–	–	–	–	–	–	–
CC(C)c1cc(NC(=O)Nc2ccc(F)c(F)c2)n(-c2ccccc2)n1	inactive	inactive	–	–	–	–	150	1400	136	2000
O=C(Nc1ccc(F)c(Cl)c1)Nc1cc(CC2CC2)nn1-c1ccccc1	–	–	–	–	–	–	70	310	87	810
CC(C)c1cc(NC(=O)Nc2cccc(Cl)c2)n(Cc2ccccc2)n1	–	–	470	35	1700	23	–	–	–	–
O=C(Nc1ccc(F)c(F)c1)Nc1cc(C2CCCC2)nn1-c1ccccc1	inactive	inactive	–	–	–	–	88	4100	85	5100

Structure (SMILES)	Activity [1]	Activity [2]	EC50 (Kir3.1/Kir3.2 [3]) [nM]	Efficacy [4] [%]	EC50 (Kir3.1/Kir3.4 [5]) [nM]	Efficacy [6] [%]	inhibition [7] [%]	IC50 (Kir3.1/Kir3.4 [8]) [nM]	inhibition [9] [%]	IC50 (Kir3.1/Kir3.2 [10]) [nM]
Cc1cc(NC(=O)Nc2ccc(F)c(F)c2)n(-c2ccccn2)n1	inactive	inactive	> 10000	78	> 30000	–	–	–	–	–
O=C(Nc1ccc(F)cc1)Nc1cc(C2CC2)nn1Cc1ccccc1	–	–	350	57	570	90	–	–	–	–
O=C(Nc1cccc(F)c1)Nc1cc(C2CC2)nn1-c1ccccc1	–	–	–	–	–	–	–	> 30000	60	1200
O=C(Nc1cccc(Br)c1)Nc1cc(C2CCC2)nn1-c1ccccc1	–	–	–	–	–	–	69	720	51	1900
O=C(Nc1cccc(Cl)c1)Nc1cc(CC2CC2)nn1-c1ccccc1	–	–	–	–	–	–	72	340	76	630
O=C(Nc1cccc(C(F)(F)F)c1)Nc1cc(CC2CC2)nn1-c1ccccc1	–	–	–	–	–	–	45	250	88	540
O=C(Nc1cccc(Cl)c1)Nc1cc(C2CC2)nn1-c1ccccc1	–	–	1400	37	720	39	–	–	–	–
Cc1cccc(NC(=O)Nc2cc(C3CC3)nn2-c2ccccc2)c1	–	–	–	–	–	–	–	> 30000	80	850
O=C(Nc1cccc(F)c1)Nc1cc(CC2CC2)nn1-c1ccccc1	–	–	–	–	–	–	72	180	75	450
CC(C)c1cc(NC(=O)Nc2cccc(C(F)(F)F)c2)n(Cc2ccccc2)n1	–	–	1700	38	3500	10	–	–	–	–
O=C(Nc1cccc(Br)c1)Nc1cc(C2CC2)nn1Cc1ccccc1	–	–	380	44	790	65	–	–	–	–
O=C(Nc1cccc(C(F)(F)F)c1)Nc1cc(C2CC2)nn1Cc1ccccc1	–	–	340	35	650	39	–	–	–	–
Cc1ccc(NC(=O)Nc2cc(C(C)C)nn2-c2ccccc2)cc1	–	–	–	–	–	–	62	1800	100	3900
O=C(Nc1ccc(F)c(F)c1)Nc1cc(CC2CC2)nn1-c1ccccc1	inactive	inactive	–	–	–	–	67	560	95	650
O=C(Nc1ccc(F)c(Cl)c1)Nc1cc(C2CCC2)nn1-c1ccccc1	–	–	–	–	–	–	69	610	70	1900
CC(C)c1cc(NC(=O)Nc2cccc(F)c2)n(-c2ccccc2)n1	–	–	–	–	–	–	70	780	77	2100
